Reference: patent US12673915B2, “Precursor compound of hexahydro-beta-acid component compound, feed composition and use thereof” (WISORIG TECHNOLOGIES PTE. LIMITED, priority 2020, dated 2026)

Legend:
[1] = system: Duroc×Landrace×Yorkshire cross-bred bacon-type piglets; experiment: Effect on the production performance of hogs (14-day feeding trial); assay type: in vivo; conditions: 25 ppm in feed; for ADFI (average daily feed intake) / ADG (average daily weight gain) / FCR (feed conversion ratio): 14 days, piglets
Source text: 480 67-day-old Duroc×Landrace×Yorkshire cross-bred bacon-type piglets with similar body weight, were randomly divided into 16 groups, with 3 replications per group, 10 piglets per replication and equal amounts of males and females. The pig pen and tools were sterilized before the trial. In the trial, the piglets were kept in separate regions in the same pig pen under the same feeding and management conditions, were given a free hand with the feed and the water, and were fed twice a day. The groups were known as control group (group 1) and test groups 2 to 16. The piglets of the control group were fed with basal formula feed only, while those of the test groups 2 to 16 were respectively fed with basal formula feed mixed with different additives, wherein the active ingredient of the additives was a hexahydro-β-acid compound or a prodrug of a hexahydro-β-acid compound provide herein, and the content thereof in the feed was 5 or 25 ppm as shown in Table 4.
The trial lasted for 14 days. During the trial, each test group was not fed with other antioxidants or growth enhancers. On the 14th day, each test group was fed with no feed but water for 12 hours, and the piglets of each replication as one unit were weighed to calculate the average daily feed intake (ADFI, g/d per piglet), the average daily weight gain (ADG, g/d per piglet), and the feed conversion ratio (FCR). Average daily feed intake=(Total weight of provided feed−Weight of residual feed)/(Days of the trial×Number of piglets in each replicate) Average daily weight gain=(final average body weight−initial average body weight)/Days of the trial Feed conversion ratio=average daily feed intake/average daily weight gain

[2] = Long-term stability in feeds at room temperature (25° C.±2° C., RH 60%±10%; HPLC); assay type: physicochemical; conditions: for stability / content in feeds at room temperature (in words): during the testing period
Source text: Feeds: ZUSF's premixed feed (A mixture of crushed Feed A and crushed Feed B at a weight ratio of 2:1, wherein Feed A was a 5.33% multi-premixed feed for piglets from ZUSF's Hao-Ru-Zhen-Jing, and B was a 2.67% multi-premixed feed for piglets from ZUSF's Hao-Ru-Zhen-Jing); creep feed for piglets from CP FEED; INSIGHTER's feed for broiler; 4% premixed feed from GUANGDONG CO-POWER.
Preparation of a sample of 1% premix of Ingredient: 1 g of an ingredient was respectively weighed out and evenly mixed with 99 g of corncob meal in a mixer to give a sample of 1% premix of an ingredient.
Preparation of a sample of 500 ppm feed of an ingredient: The sample of 1% premix of an ingredient was diluted step by step using the ZUSF's remixed feed to 5000 ppm and 500 ppm to give the sample of 500 ppm feed of an ingredient for later testing.
Preparation of a sample of 100 ppm feed of an ingredient: sample of 1% premix of an ingredient was diluted step by step using the creep feed for piglets from CP FEED to 1000 ppm and then 100 ppm to give the sample of 100 ppm feed of an ingredient for later testing.
Preparation of a sample of 100 ppm feed of an ingredient: The sample of 1% premix of an ingredient was diluted step by step using the INSIGHTER's feed for broiler to 1000 ppm and 100 ppm to give the sample of 100 ppm feed of an ingredient for later testing.
Preparation of a sample of 2000 ppm feed of an ingredient: The sample of 1% premix of an ingredient was diluted step by step using the 4% premixed feed from GUANGDONG CO-POWER to 5000 ppm and 2000 ppm to give the sample of 2000 ppm feed of an ingredient for later testing.
Method: Three replications of each feed sample were tested at the condition of 25° C.±2° C. and RH 60%±10%, wherein the replications of each feed sample were sampled in parallel for HPLC analysis on day 5, day 10, day 15, day 30, day 60, and day 90.
25.0 mg of an ingredient was accurately weighed out and dissolved in an appropriate amount of methanol or n-hexane by ultrasonication. The solution was then transferred to a volumetric flask and diluted to 50 mL to give a 500 ppm (by wt.) stock solution. The samples from the stock solution were diluted with methanol or n-hexane respectively to a concentration of 10 ppm, 25 ppm, 50 ppm, 100 ppm, and 250 ppm of work solution, and then the working solutions were filtered by 0.22 μm organic membranes. Between the concentration of a sample and the response value of HPLC peak area thereof, the linearity was adjusted and detected to give a standard curve.
5.0000 g of the samples sampled at different time intervals were respectively accurately weighed out, and dissolved in 25 mL of methanol or n-hexane by ultrasonication for 10 minutes. The resulting solutions were filtered by organic membranes and then analyzed by HPLC.
• Equipment: Waters e2695 with PDA detector. • Mobile phase: 0.02% phosphoric acid:methanol=5:95 (v:v). • Column: Symmetry Cis column (Waters; 250 mm×4.6 mm, 5 μm). • Wavelength: 235 nm. • Temperature of the Column: 25° C. • Injection volume: 10 μL. • Flow rate: 1 mL/min. Normal Phase Chromatography: • Equipment: Shimadzu LC-14C/SPD-15C. • Column: SuperSil NH2 column ([…]; 250 mm×4.6 mm). • Mobile phase: n-hexane:isopropanol=60:40 (v:v). • Wavelength: 235 nm. • Temperature of the Column: 25° C. • Injection volume: 20 μL. • Flow rate: 1 mL/min. 3: Results

[3] = 100 ppm in INSIGHTER's broiler feed, Day 5
[4] = 100 ppm in INSIGHTER's broiler feed, Day 15
[5] = 100 ppm in INSIGHTER's broiler feed, Day 30
[6] = 100 ppm in INSIGHTER's broiler feed, Day 60
[7] = 100 ppm in INSIGHTER's broiler feed, Day 90
[8] = 100 ppm in creep feed for piglets from CP FEED, Day 5
[9] = 100 ppm in creep feed for piglets from CP FEED, Day 15
[10] = 100 ppm in creep feed for piglets from CP FEED, Day 30
[11] = 100 ppm in creep feed for piglets from CP FEED, Day 60
[12] = 100 ppm in creep feed for piglets from CP FEED, Day 90
[13] = 500 ppm in ZUSF's premixed feed, Day 15
[14] = 500 ppm in ZUSF's premixed feed, Day 30
[15] = 500 ppm in ZUSF's premixed feed, Day 60
[16] = 500 ppm in ZUSF's premixed feed, Day 90

Residual amount of active ingredient [2, 3] [%]	Residual amount of active ingredient [2, 4] [%]	Residual amount of active ingredient [2, 5] [%]	Residual amount of active ingredient [2, 6] [%]	Residual amount of active ingredient [2, 8] [%]	Residual amount of active ingredient [2, 9] [%]	Residual amount of active ingredient [2, 10] [%]	Residual amount of active ingredient [2, 11] [%]	Residual amount of active ingredient [2, 12] [%]	Compound	ADFI (average daily feed intake) [1] [g/d per piglet]	ADG (average daily weight gain) [1] [g/d per piglet]	FCR (feed conversion ratio) [1]	also measured
									CCCC(=O)OC1=C(CCC(C)C)C(=O)C(CCC(C)C)(CCC(C)C)C(O)=C1C(=O)C(C)CC (centres unmarked) [Hexahydro-adlupulone mono-butyrate, hexahydro-adlupulone mono-butyrate]	883	398	2.221	
									CCC(=O)OC1=C(CCC(C)C)C(=O)C(CCC(C)C)(CCC(C)C)C(O)=C1C(=O)C(C)CC (centres unmarked) [Hexahydro-adlupulone mono-propionate, hexahydro-adlupulone mono-propionate]	876	393	2.228	
									CCC(C)C(=O)C1=C(O)C(CCC(C)C)(CCC(C)C)C(=O)C(CCC(C)C)=C1O (centres unmarked) [Hexahydro-adlupulone, reference compound]	860	384	2.240	
									CCCC(=O)OC1=C(CCC(C)C)C(=O)C(CCC(C)C)(CCC(C)C)C(OC(=O)CCC)=C1C(=O)C(C)C [Hexahydro-colupulone di-butyrate, hexahydro-colupulone di-butyrate]	950	413	2.298	
									CCC(=O)OC1=C(CCC(C)C)C(=O)C(CCC(C)C)(CCC(C)C)C(OC(=O)CC)=C1C(=O)C(C)C [Hexahydro-colupulone di-propionate, hexahydro-colupulone di-propionate]	926	415	2.231	
99.63	99.65	99.68	98.68						CCCCCCCCCCCC(=O)OC1=C(CCC(C)C)C(=O)C(CCC(C)C)(CCC(C)C)C(O)=C1C(=O)C(C)C [hexahydro-colupulone mono-laurate]	918	383	2.399	Residual amount of active ingredient [2, 7]: 98.47%; Residual amount of active ingredient ([2]; 1000 ppm in INSIGHTER's broiler feed, Day 5): 101.19%; Residual amount of active ingredient ([2]; 1000 ppm in INSIGHTER's broiler feed, Day 15): 101.72%; Residual amount of active ingredient ([2]; 1000 ppm in INSIGHTER's broiler feed, Day 30): 98.60%; Residual amount of active ingredient ([2]; 1000 ppm in INSIGHTER's broiler feed, Day 60): 97.85%; Residual amount of active ingredient ([2]; 1000 ppm in INSIGHTER's broiler feed, Day 90): 95.26%; effects on the performance of piglets compared with mono-acetate and mono-butyrate (in words) [1]: not as significant
86.64	83.77	81.32	76.53	66.59	58.39	55.80	47.76	44.33	disodium salt of hexahydro-colupulone mono-phosphate [reference compound]				Residual amount of active ingredient [2, 7]: 62.97%
98.90	97.72	96.58	95.77	102.18	96.14	95.30	95.20	95.55	hexahydro-colupulone mono-hexanoate	913	383	2.386	Residual amount of active ingredient [2, 13]: 87.50%; Residual amount of active ingredient [2, 14]: 89.00%; Residual amount of active ingredient [2, 15]: 86.07%; Residual amount of active ingredient [2, 16]: 83.77%; stability / content in feeds at room temperature (in words) [2]: relatively poor in some of the feeds; effects on the performance of piglets compared with mono-acetate and mono-butyrate (in words) [1]: not as significant
98.84	98.12	97.73	96.64	100.94	98.82	96.92	96.01	95.61	hexahydro-colupulone mono-pentanoate				Residual amount of active ingredient [2, 13]: 94.29%; Residual amount of active ingredient [2, 14]: 94.80%; Residual amount of active ingredient [2, 15]: 88.17%; Residual amount of active ingredient [2, 16]: 89.14%; stability / content in feeds at room temperature (in words) [2]: relatively poor in some of the feeds
